These results are taken from PMC4770715, “LIM kinase inhibitors disrupt mitotic microtubule organization and impair tumor cell proliferation” (Oncotarget, 2015).

Some targets named below: PIP5K1A (Homo sapiens, UniProt Q99755); CDK3 (Homo sapiens, UniProt Q00526); EGFR(E746-A750del) (Homo sapiens, UniProt P00533, DEL746-750); CDKL3 (Homo sapiens, UniProt Q8IVW4); FLT3(D835Y) (Homo sapiens, UniProt P36888, D835Y); AKT2 (Homo sapiens, UniProt P31751); SRC (Homo sapiens, UniProt P12931); SRPK2 (Homo sapiens, UniProt P78362); CDK8 (Homo sapiens, UniProt P49336); ACVR2A (Homo sapiens, UniProt P27037); RIPK4 (Homo sapiens, UniProt P57078); CSNK1G2 (Homo sapiens, UniProt P78368); CDK9 (Homo sapiens, UniProt P50750).

Common to all, as to assay: biochemical
What all share (design): KINOMEscan active-site competition binding, percent of control (100 = no competition)
What all share (conditions): competition binding, percent control

The target of experiment [1] is T1, RSK4(Kin.Dom.1-N-terminal) (Homo sapiens, UniProt Q9UK32).
T1 construct: gene RPS6KA6; Kin.Dom.1-N-terminal

The next experiment has as its target T2, LKB1 (Homo sapiens, UniProt Q15831).
T2 construct: gene STK11

A further experiment addresses T3, CDK4-cyclinD3 (Homo sapiens, UniProt P11802).
T3 construct: cyclinD3

The target of another experiment is T4, YANK2 (Homo sapiens, UniProt Q9NY57).
T4 construct: gene STK32B

Another experiment deals with T5, ADCK3 (Homo sapiens, UniProt Q8NI60).
T5 construct: gene COQ8A

Experiment [2] has as its target T6, RPS6KA4(Kin.Dom.2-C-terminal) (Homo sapiens, UniProt O75676).
T6 construct: Kin.Dom.2-C-terminal

A further experiment addresses T7, ERK1 (Homo sapiens, UniProt P27361).
T7 construct: gene MAPK3

The target in a further experiment is T8, IKK-alpha (Homo sapiens, UniProt O15111).
T8 construct: gene CHUK

A further experiment addresses T9, CDC2L1 (Homo sapiens, UniProt P21127).
T9 construct: gene CDK11B

T5 sequence (Q8NI60 whole entry): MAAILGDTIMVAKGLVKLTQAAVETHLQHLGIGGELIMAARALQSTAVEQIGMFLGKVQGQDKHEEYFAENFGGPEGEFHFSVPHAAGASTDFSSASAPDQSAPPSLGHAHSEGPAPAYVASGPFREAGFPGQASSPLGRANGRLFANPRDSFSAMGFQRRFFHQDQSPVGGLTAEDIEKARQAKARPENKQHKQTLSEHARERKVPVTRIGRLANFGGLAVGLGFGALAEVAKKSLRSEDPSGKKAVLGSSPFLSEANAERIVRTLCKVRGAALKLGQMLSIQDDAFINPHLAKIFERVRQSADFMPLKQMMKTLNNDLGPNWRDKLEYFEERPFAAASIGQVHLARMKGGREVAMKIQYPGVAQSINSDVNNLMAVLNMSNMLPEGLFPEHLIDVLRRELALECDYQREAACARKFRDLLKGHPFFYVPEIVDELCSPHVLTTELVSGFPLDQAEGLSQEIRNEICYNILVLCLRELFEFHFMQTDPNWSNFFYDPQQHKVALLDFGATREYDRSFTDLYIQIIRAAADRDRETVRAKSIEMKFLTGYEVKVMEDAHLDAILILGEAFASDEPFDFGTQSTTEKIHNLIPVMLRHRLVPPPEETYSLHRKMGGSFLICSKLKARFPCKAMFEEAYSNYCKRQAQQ
Sequence of SRC (P12931 whole entry): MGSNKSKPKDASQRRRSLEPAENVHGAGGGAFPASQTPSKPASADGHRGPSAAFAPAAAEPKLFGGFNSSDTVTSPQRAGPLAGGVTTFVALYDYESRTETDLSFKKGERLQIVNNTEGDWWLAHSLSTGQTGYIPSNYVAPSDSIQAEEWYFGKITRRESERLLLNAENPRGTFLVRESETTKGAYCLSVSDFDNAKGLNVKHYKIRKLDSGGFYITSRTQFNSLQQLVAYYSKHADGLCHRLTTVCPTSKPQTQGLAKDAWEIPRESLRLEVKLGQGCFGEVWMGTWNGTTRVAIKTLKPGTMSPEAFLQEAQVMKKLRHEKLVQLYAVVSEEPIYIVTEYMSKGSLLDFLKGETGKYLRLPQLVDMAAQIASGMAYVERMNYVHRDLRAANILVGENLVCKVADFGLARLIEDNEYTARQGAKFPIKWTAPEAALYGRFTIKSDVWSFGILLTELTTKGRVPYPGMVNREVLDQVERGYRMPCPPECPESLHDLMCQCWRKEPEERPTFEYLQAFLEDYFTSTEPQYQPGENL
T2 sequence (Q15831 whole entry): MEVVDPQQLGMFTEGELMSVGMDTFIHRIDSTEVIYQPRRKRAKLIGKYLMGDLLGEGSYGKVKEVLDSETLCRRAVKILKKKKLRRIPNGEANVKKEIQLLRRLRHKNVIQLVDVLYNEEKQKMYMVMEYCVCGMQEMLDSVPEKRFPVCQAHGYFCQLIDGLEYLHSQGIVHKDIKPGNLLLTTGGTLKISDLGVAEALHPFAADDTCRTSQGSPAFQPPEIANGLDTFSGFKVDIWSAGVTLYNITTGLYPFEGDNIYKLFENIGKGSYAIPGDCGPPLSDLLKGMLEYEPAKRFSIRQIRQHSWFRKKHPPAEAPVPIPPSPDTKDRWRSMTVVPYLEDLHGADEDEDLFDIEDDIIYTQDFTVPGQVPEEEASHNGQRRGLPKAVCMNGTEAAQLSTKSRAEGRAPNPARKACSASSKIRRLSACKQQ
Sequence of AKT2 (P31751 whole entry): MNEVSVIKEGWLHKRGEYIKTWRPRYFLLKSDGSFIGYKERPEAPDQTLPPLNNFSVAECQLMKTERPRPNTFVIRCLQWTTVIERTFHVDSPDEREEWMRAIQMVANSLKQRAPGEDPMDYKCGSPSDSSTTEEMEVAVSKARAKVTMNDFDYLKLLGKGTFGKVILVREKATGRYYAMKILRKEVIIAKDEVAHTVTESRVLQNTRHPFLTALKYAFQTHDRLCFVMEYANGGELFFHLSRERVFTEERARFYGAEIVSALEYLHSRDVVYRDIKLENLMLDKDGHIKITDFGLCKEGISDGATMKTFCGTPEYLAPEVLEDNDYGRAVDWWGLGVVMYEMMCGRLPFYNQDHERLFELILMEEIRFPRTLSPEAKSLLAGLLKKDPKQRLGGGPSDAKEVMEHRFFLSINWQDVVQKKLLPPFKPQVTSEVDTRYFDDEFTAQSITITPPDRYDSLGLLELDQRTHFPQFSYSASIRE
Sequence of ACVR2A (P27037 whole entry): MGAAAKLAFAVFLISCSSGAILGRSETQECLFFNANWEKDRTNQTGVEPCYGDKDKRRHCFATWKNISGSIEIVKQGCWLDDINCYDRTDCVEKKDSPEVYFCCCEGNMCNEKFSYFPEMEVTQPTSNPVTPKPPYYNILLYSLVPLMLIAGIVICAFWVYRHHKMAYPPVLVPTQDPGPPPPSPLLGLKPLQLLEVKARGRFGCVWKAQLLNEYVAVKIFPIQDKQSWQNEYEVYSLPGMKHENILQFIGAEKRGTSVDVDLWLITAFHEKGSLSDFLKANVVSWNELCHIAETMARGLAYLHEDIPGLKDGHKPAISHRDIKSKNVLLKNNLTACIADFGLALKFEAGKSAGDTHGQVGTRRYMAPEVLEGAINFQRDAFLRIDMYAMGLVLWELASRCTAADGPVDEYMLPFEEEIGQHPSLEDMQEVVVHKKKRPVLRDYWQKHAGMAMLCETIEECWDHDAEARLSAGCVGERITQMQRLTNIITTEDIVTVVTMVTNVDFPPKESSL
Sequence of CDK9 (P50750 whole entry): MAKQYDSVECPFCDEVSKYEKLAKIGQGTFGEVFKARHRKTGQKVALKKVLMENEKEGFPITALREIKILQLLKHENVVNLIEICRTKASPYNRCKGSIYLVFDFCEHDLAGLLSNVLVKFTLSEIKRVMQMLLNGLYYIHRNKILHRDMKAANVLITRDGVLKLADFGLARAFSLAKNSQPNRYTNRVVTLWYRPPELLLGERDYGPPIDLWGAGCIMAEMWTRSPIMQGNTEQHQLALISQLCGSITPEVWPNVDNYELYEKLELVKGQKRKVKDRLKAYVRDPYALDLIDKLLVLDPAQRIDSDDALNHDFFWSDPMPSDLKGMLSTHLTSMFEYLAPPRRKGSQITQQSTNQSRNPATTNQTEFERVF
T6 sequence (O75676 whole entry): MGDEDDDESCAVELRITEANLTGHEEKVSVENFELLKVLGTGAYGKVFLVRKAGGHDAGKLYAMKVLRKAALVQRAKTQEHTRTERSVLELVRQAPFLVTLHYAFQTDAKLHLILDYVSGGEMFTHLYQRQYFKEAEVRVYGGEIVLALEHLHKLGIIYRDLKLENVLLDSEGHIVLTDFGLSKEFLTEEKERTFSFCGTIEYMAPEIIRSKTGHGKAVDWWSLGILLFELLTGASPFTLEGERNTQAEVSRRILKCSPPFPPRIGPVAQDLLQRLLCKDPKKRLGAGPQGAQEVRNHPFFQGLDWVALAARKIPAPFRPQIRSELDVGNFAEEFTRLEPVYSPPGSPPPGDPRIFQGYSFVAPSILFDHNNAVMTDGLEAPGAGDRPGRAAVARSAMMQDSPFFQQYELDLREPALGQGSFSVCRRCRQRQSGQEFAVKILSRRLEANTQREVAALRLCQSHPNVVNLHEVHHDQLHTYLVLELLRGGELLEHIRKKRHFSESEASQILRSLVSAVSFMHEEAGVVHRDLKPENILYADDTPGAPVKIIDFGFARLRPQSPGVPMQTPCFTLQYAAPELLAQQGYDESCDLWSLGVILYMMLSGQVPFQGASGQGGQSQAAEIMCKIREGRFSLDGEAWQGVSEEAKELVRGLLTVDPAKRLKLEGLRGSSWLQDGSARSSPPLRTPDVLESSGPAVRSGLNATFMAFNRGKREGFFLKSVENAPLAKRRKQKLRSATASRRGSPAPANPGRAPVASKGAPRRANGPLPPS
T4 sequence (Q9NY57 whole entry): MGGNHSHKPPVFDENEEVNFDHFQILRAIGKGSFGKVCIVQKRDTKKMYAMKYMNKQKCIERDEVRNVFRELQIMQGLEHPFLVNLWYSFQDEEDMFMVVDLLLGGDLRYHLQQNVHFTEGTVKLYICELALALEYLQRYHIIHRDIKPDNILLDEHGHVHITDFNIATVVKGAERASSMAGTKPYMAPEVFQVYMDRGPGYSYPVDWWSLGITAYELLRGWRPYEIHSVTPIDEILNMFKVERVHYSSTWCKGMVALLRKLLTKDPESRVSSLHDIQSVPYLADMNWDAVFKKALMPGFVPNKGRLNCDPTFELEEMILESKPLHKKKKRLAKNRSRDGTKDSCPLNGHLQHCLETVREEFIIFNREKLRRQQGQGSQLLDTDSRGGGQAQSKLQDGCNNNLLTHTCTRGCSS
T8 sequence (O15111 whole entry): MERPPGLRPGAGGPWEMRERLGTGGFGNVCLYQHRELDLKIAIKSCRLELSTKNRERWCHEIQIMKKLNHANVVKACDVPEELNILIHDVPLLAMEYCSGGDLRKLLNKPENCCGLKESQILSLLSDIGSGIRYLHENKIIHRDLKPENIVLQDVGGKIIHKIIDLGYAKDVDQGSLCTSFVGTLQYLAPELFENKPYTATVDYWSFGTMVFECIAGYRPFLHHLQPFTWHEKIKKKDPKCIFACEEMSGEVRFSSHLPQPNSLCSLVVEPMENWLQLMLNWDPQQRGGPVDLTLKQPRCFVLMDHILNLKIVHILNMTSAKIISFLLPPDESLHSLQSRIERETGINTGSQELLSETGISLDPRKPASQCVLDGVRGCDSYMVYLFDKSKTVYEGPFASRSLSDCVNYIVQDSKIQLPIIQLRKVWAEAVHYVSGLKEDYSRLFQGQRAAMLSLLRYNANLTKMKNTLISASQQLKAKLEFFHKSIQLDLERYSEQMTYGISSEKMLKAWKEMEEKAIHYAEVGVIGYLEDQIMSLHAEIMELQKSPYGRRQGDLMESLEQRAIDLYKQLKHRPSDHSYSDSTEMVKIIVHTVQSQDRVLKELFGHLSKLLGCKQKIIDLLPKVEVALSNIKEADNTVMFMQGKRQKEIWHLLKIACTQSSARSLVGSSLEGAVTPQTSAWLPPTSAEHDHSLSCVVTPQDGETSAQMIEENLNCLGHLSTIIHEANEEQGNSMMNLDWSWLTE

Turning to `COc1ccc(-c2cnccc2-c2cnc(NC(=O)C(C)C)s2)c(C(F)(F)F)c1` [CRT0105446, N-{5-[3-(4-Methoxy-2-trifluoromethyl-phenyl)-pyridin-4-yl]-hiazol-2-yl}-isobutyramide], the remaining binding at 10 µM on PIP5K1A amounted to 100%; on CDK3 it was 24%; in experiment [1] it was 59%; on EGFR(E746-A750del) it was 100%; at LKB1 it was 100%; at CDK4-cyclinD3, 48%. Also, the remaining binding at 10 µM came out at 26% at CDKL3; 100% at YANK2; 98% at ADCK3; 57% in experiment [2]; 20% at FLT3(D835Y); 100% at AKT2. The remaining binding at 10 µM on SRC came out at 100%; on SRPK2 it was 93%; on CDK8 it was 39%; at ERK1 it was 100%; at ACVR2A, 74%; at RIPK4, 100%. Also, the remaining binding at 10 µM was 55% at CSNK1G2, 89% at IKK-alpha, 54% at CDC2L1 and 28% on CDK9.
Regarding `Cc1ccc(-c2cnccc2-c2cnc(Nc3ccc(O)cc3)s2)c(Cl)c1` [CRT0105950, 4-{5-[3-(2-Chloro-4-methyl-phenyl)-pyridin-4-yl]-thiazol-2-ylamino}-phenol], the remaining binding at 10 µM at PIP5K1A was 82%; on CDK3, 7.7%; in experiment [1] it was 0.4%; at EGFR(E746-A750del) it was 78%; on LKB1 it was 79%; at CDK4-cyclinD3, 13%. Also, the remaining binding at 10 µM turned out to be 23% at CDKL3; 100% on YANK2; 56% at ADCK3; 72% in experiment [2]; 1.2% on FLT3(D835Y); 100% on AKT2. The remaining binding at 10 µM at SRC came to 82%; at SRPK2, 83%; on CDK8, 11%; on ERK1, 96%; at ACVR2A it was 45%; at RIPK4, 99%. In addition, the remaining binding at 10 µM on CSNK1G2 worked out at 30%; at IKK-alpha, 94%; on CDC2L1 it was 71%; on CDK9, 65%.
